Values of other authors in patent publication US20250214981A1, “COMPOUND AND APPLICATION THEREOF IN PREPARATION OF MEDICINE FOR TREATING ENTEROVIRUS-RELATED DISEASES” (priority 2022, published 2025).

Experiments:
[1] = system: human rhinovirus serotypes
[2] = system: mammalian cysteine and serine proteases, including cathepsin B, elastase, chymotrypsin, trypsin, thrombin, and calpain
[3] = in vivo

SMILES: CCOC(=O)/C=C/[C@H](C[C@@H]1CCNC1=O)NC(=O)[C@@H](CC(=O)[C@@H](NC(=O)c1cc(C)on1)C(C)C)Cc1ccc(F)cc1 [AG7088]
- antiviral activity against a variety of human rhinovirus serotypes [1]: significant antiviral activity
- inhibitory activity against mammalian cysteine and serine proteases [2]: negligible inhibitory activity
- bioavailability [3]: low bioavailability
